Here are results for 44 molecules from patent US10703746B2, “Mutant IDH1 inhibitors useful for treating cancer” (THE UNITED STATES OF AMERICA, AS REPRESENTED BY THE …, priority 2014, dated 2020).

SMILES strings stand for the structures. pIC50: −log10 of the molar value.

Assay [1] deals with IDH1 R132C (Homo sapiens, UniProt O75874, R132C). Put plainly: IDH1 R132C enzymatic assay (NADPH depletion coupled to diaphorase/resazurin). It is filed as biochemical. Particulars: IDH1 R132C enzymatic inhibition, IC50 class. The protocol: (§1) Assays were conducted in a 1536-well black solid-bottom plate with a final assay volume of 9 μL.
For IDH1 R132C, 3 μL of enzyme (0.00032 mg/mL IDH1 […], 10% glycerol, 50 mM potassium phosphate pH 6.5, 5 mM MgCl2, 0.03% BSA) were added to the plate, followed by the addition of 23 nL of test compound in DMSO. The plate was lidded and incubated at room temperature for 30 minutes at which time 3 μL of substrate were added (0.012 mM NADPH, 0.6 mM α-KG, 10% glycerol, 50 mM potassium phosphate pH 6.5, 5 mM MgCl2, 0.03% BSA). […]
For orientation: The colour change of resazurin is a common sign of viable cells or microbes.

The target of assay [2] is IDH1 R132H (Homo sapiens, UniProt O75874, R132H). Nature of the assay: IDH1 R132H enzymatic assay (NADPH depletion coupled to diaphorase/resazurin). It is filed as biochemical. Particulars: IDH1 R132H enzymatic inhibition, IC50 class. Here is the method: as §1
Specifically, for IDH1 R132H, 3 μL of enzyme (4 mM β-ME, 0.0005 mg/mL IDH1 R132H, 150 mM NaCl, 20 mM Tris pH 7.5, 10 mM MgCl2, 0.05% BSA) were added to the plate, followed by the addition of 23 nL of test compound in DMSO. The plate was lidded and incubated at room temperature for 30 minutes at which time 3 μL of substrate were added (0.016 mM NADPH, 2 mM α-KG, 150 mM NaCl, 20 mM Tris pH 7.5, 10 mM MgCl2, 0.05% BSA). This reaction was incubated at room-temperature for 60 minutes at which time the detection mix was added (0.06 mg/mL diaphorase, 0.036 mM resazurin, 150 mM NaCl, 20 mM Tris pH 7.5, 10 mM MgCl2, 0.05% BSA). […]

Chain of IDH1 R132C (O75874 whole entry R132C): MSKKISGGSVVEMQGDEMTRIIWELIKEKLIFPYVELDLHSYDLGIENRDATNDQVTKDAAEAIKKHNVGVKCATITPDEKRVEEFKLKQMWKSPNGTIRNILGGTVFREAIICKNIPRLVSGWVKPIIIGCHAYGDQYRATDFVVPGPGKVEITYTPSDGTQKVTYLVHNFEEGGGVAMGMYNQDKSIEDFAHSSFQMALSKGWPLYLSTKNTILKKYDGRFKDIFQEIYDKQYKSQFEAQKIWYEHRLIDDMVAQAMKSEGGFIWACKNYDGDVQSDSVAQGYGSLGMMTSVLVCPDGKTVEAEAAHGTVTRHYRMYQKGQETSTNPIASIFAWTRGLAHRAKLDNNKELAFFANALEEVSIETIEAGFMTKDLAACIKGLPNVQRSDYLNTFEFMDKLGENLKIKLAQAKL
Chain of IDH1 R132H (O75874 whole entry R132H): as the sequence (O75874 whole entry R132C) above, with C132H counted along it

Usually pIC50 stands for the negative decadic logarithm of the IC50, by convention in mol/L. A lower pIC50 goes with a large IC50. Consider `CCc1cccc(CC)c1-n1c(C(C)C)c(C(=O)N2CCNC(C(=O)O)C2)cc(-c2nc(-c3ccc(Cl)cc3)cs2)c1=O` (stereo not shown) [Compound 88], for which the pIC50 in assay [1] and in assay [2] was greater than 6.52 throughout.
On to `CCc1cccc(CC)c1-n1c(CC(C)C)c(C(=O)N2CCC(CO)C2)cc(-c2nc(-c3ccc(Cl)cc3)cs2)c1=O` (stereo not shown) [Compound 89], for which the pIC50 in assay [1] is 6.00 to 6.52; in assay [2], 5.30 to 6.00.
Taken in the same sequence, the figures for `CCc1cccc(CC)c1-n1c(CC(C)C)c(C(=O)N2CCNC(=O)C2)cc(-c2nc(-c3ccc(Cl)cc3)cs2)c1=O` [Compound 91] were greater than 6.52 and greater than 6.52.
As for `CC1(C)CC(=O)c2cc(-c3nc(-c4ccc(Cl)cc4)cs3)c(=O)n(-c3cc(C(F)(F)F)ccc3N3CCOCC3)c2C1` [Compound 92], the pIC50 in assay [1] and in assay [2] was 5.30 to 6.00 in each case.
In the case of `COc1ccc(OC)c(-n2c3c(cc(C(=O)NCc4ccc(Cl)cc4)c2=O)C(=O)CC(C)(C)C3)c1` [Compound 93], the pIC50 in assay [1] and in assay [2] was 4.70 to 5.30 throughout.
For the molecule `CCc1cccc(CC)c1-n1c(CC(C)C)c(C(=O)N2CCC(CO)CC2)cc(-c2nc(-c3ccc(Cl)cc3)cs2)c1=O` [Compound 94], the pIC50 was greater than 6.52 in assay [1] and 5.30 to 6.00 in assay [2].
Consider `COc1cc(N)ccc1-n1c2c(cc(-c3nc(-c4ccc(Cl)cc4)cs3)c1=O)C(=O)CC(C)(C)C2` [Compound 95], for which the pIC50 in assay [1] and in assay [2] was 5.30 to 6.00 each time.
Take `COc1ccc(OC)c(-n2c(=O)c(-c3nc(-c4ccc(Cl)cc4)cs3)cc3c(OC)nccc32)c1` [Compound 97]: the pIC50 in assay [1] was 5.30 to 6.00; in assay [2], 4.70 to 5.30.
Taken in the same sequence, the figures for `CCc1cccc(CC)c1-n1c(C(C)C)c(C(=O)O)cc(-c2nc(-c3ccc(Cl)cc3)cs2)c1=O` [Compound 98] were 4.70 to 5.30 and 5.30 to 6.00.
For `CCc1cccc(CC)c1-n1c(C)c(C(=O)NC2CCNC2)cc(-c2nc(-c3ccc(Cl)cc3)cs2)c1=O` (stereo not shown) [Compound 99], the pIC50 in assay [1] was 6.00 to 6.52; in assay [2], 5.30 to 6.00.
For `CCc1cccc(CC)c1-n1c(CO)c(C(=O)NC)cc(-c2nc(-c3ccc(Cl)cc3)cs2)c1=O` [Compound 100], in that order: 5.30 to 6.00 and 5.30 to 6.00.
Turning to `CCc1cccc(CC)c1-n1c(C(C)C)c(C(=O)NC[C@@H](C)O)cc(-c2nc(-c3ccc(Cl)cc3)cs2)c1=O` [Compound 101], the pIC50 is 6.00 to 6.52 in assay [1] and 5.30 to 6.00 in assay [2].
As for `CCc1cccc(CC)c1-n1c(CC(C)C)c(C(=O)N2CCN[C@@H](C(=O)O)C2)cc(-c2nc(-c3ccc(Cl)cc3)cs2)c1=O` [Compound 102], the pIC50 in assay [1] is greater than 6.52; in assay [2] it was 6.00 to 6.52.
Consider `CCc1cccc(CC)c1-n1c(C)c(C(=O)N2CCC(O)C2)cc(-c2nc(-c3ccc(Cl)cc3)cs2)c1=O` (stereo not shown) [Compound 103], for which the pIC50 in assay [1] is 4.70 to 5.30; in assay [2] it was 5.30 to 6.00.
In the case of `CCc1cccc(CC)c1-n1c(CC(C)C)c(C(=O)N2CCNCC2)cc(-c2ccn(-c3ccccc3)n2)c1=O` [Compound 104], the negative logarithm of the IC50 (pIC50) in assay [1] and in assay [2] was 5.30 to 6.00 each time.
Consider `CC(=O)Nc1ccccc1-n1c2c(cc(-c3nc(-c4ccc(Cl)cc4)cs3)c1=O)C(=O)CC(C)(C)C2` [Compound 105], for which the values for the pIC50 in assay [1] and in assay [2] were 4.70 to 5.30 and 5.30 to 6.00, respectively.
Taken in the same sequence, the figures for `CCc1cccc(CC)c1-n1c(C)c(C(=O)N2CCNC(CO)C2)cc(-c2nc(-c3ccc(Cl)cc3)cs2)c1=O` (stereo not shown) [Compound 106] were 6.00 to 6.52 and greater than 6.52.
As for `CCc1cccc(CC)c1-n1c(CC(C)C)c(C(=O)N2CCNC(C)C2C)cc(-c2nc(-c3ccc(Cl)cc3)cs2)c1=O` (stereo not shown) [Compound 107], the pIC50 in assay [1] is greater than 6.52; in assay [2], 6.00 to 6.52.
`CCc1cccc(CC)c1-n1c(C)c(C(=O)NC)cc(-c2nc(-c3ccc(Cl)cc3)cs2)c1=O` [Compound 108]: the pIC50 in assay [1] and in assay [2] was 5.30 to 6.00 each time.
On to `CCc1cccc(CC)c1-n1c(C)c(C(=O)N2CCC(C(=O)O)CC2)cc(-c2nc(-c3ccc(Cl)cc3)cs2)c1=O` [Compound 109], for which the pIC50 is 4.70 to 5.30 in assay [1] and 5.30 to 6.00 in assay [2].
For `CCc1cccc(CC)c1-n1c(C)c(C(=O)N2CCOCC2)cc(-c2nc(-c3ccc(Cl)cc3)cs2)c1=O` [Compound 110], in that order: 5.30 to 6.00 and 5.30 to 6.00.
Turning to `COc1ccc(OC)c(-n2c3c(cc(-c4cccc(-c5ccc(Cl)cc5)c4)c2=O)C(=O)CC(C)(C)C3)c1` [Compound 111], the negative logarithm of the IC50 (pIC50) in assay [1] was 4.70 to 5.30; in assay [2], less than 4.70.
For `CCc1cccc(CC)c1-n1c(CC(C)C)c(C(=O)N2C[C@@H](C)N[C@@H](C)C2)cc(-c2nc(-c3ccc(Cl)cc3)cs2)c1=O` [Compound 112], in that order: greater than 6.52 and 6.00 to 6.52.
Taken in the same sequence, the figures for `CCc1cccc(CC)c1-n1c(CC(C)C)c(C(=O)N2CC(C(=O)OC)NCC2C)cc(-c2nc(-c3ccc(Cl)cc3)cs2)c1=O` (stereo not shown) [Compound 113] were 6.00 to 6.52 and 5.30 to 6.00.
`CCc1cccc(CC)c1-n1c(C)c(C(=O)NC2CCCNC2)cc(-c2nc(-c3ccc(Cl)cc3)cs2)c1=O` (stereo not shown) [Compound 114]: the negative logarithm of the IC50 (pIC50) was 6.00 to 6.52 in assay [1] and 5.30 to 6.00 in assay [2].
Consider `CC1(C)CC(=O)c2cc(-c3nc(-c4ccc(Cl)cc4)cs3)c(=O)n(-c3ccccc3CC(F)(F)F)c2C1` [Compound 115], for which the pIC50 in assay [1] and in assay [2] was 6.00 to 6.52 in each case.
In the case of `CCc1cccc(CC)c1-n1c(C)c(C(=O)NC2CCCCC2)cc(-c2nc(-c3ccc(Cl)cc3)cs2)c1=O` [Compound 116], the pIC50 is 5.30 to 6.00 in assay [1] and less than 4.70 in assay [2].
Take `CCc1cccc(CC)c1-n1c(CC(C)C)c(C(=O)N2CCNC(C(=O)OC)C2)cc(-c2nc(-c3ccc(Cl)cc3)cs2)c1=O` (stereo not shown) [Compound 117]: the pIC50 was greater than 6.52 in assay [1] and 5.30 to 6.00 in assay [2].
`CCc1cccc(CC)c1-n1c(CC(C)C)c(C(=O)NC(C)CO)cc(-c2nc(-c3ccc(Cl)cc3)cs2)c1=O` (stereo not shown) [Compound 118]: the pIC50 is greater than 6.52 in assay [1] and 6.00 to 6.52 in assay [2].
Consider `CCc1cccc(CC)c1-n1c2c(cc(-c3nc(-c4cccnc4)cs3)c1=O)C(=O)CC(C)(C)C2` [Compound 119], for which the results for the pIC50 in assay [1] and in assay [2] were 5.30 to 6.00 and 4.70 to 5.30, respectively.
Take `COc1ccc(OC)c(-n2c3c(cc(-n4cc(-c5ccccc5)cn4)c2=O)C(=O)CC(C)(C)C3)c1` [Compound 120]: the pIC50 in assay [1] and in assay [2] was less than 4.70 in each case.
As to `CC1(C)CC(=O)c2cc(-c3nc(-c4ccc(Cl)cc4)cs3)c(=O)n(-c3ccccn3)c2C1` [Compound 121], the pIC50 in assay [1] and in assay [2] was 4.70 to 5.30 each time.
For `COc1ccc(N)cc1-n1c2c(cc(-c3nc(-c4ccc(Cl)cc4)cs3)c1=O)C(=O)CC(C)(C)C2` [Compound 122], the values for the pIC50 in assay [1] and in assay [2] were 6.00 to 6.52 and 5.30 to 6.00, respectively.
For `CCc1cccc(CC)c1-n1c(C)c(C(=O)NC(C)(C)C)cc(-c2nc(-c3ccc(Cl)cc3)cs2)c1=O` [Compound 123], in that order: 5.30 to 6.00 and 4.70 to 5.30.
For `COc1ccc(OC)c(-n2c3c(cc(-c4nc(C)cs4)c2=O)C(=O)CC(C)(C)C3)c1` [Compound 124], the values for the pIC50 in assay [1] and in assay [2] were 4.70 to 5.30 and less than 4.70, respectively.
For the molecule `CCc1cccc(CC)c1-n1c(C(C)C)c(C(=O)OC)cc(-c2nc(-c3ccc(Cl)cc3)cs2)c1=O` [Compound 125], the pIC50 in assay [1] and in assay [2] was 5.30 to 6.00 throughout.
With `CCc1cccc(CC)c1-n1c(CC(C)C)c(C(=O)NCC(O)C(F)(F)F)cc(-c2nc(-c3ccc(Cl)cc3)cs2)c1=O` (stereo not shown) [Compound 127], the values for the negative logarithm of the IC50 (pIC50) in assay [1] and in assay [2] were greater than 6.52 and 6.00 to 6.52, respectively.
Turning to `COc1ccc([N+](=O)[O-])cc1-n1c2c(cc(-c3nc(-c4ccc(Cl)cc4)cs3)c1=O)C(=O)CC(C)(C)C2` [Compound 128], the pIC50 in assay [1] and in assay [2] was 5.30 to 6.00 each time.
As for `COc1ccc(OC)c(-n2c3c(cc(-c4nc(-c5ccc(Cl)cc5)cs4)c2=O)C(=O)CCC3)c1` [Compound 129], the negative-log IC50 (pIC50) in assay [1] and in assay [2] was 5.30 to 6.00 throughout.
Regarding `CC(C)Oc1ccccc1-n1c2c(cc(-c3nc(-c4ccc(Cl)cc4)cs3)c1=O)C(=O)CC(C)(C)C2` [Compound 130], the figures for the pIC50 in assay [1] and in assay [2] were 6.00 to 6.52 and 5.30 to 6.00, respectively.
Taken in the same sequence, the figures for `CCc1cccc(CC)c1-n1c(CC(C)C)c(C(=O)N2CCN[C@@H](C(=O)OC)C2)cc(-c2nc(-c3ccc(Cl)cc3)cs2)c1=O` [Compound 131] were greater than 6.52 and 5.30 to 6.00.
For `CCc1cccc(CC)c1-n1c2c(cc(-c3nc(-c4ccncc4)cs3)c1=O)C(=O)CC(C)(C)C2` [Compound 132], the pIC50 in assay [1] and in assay [2] was 5.30 to 6.00 each time.
With `CCc1cccc(CC)c1-n1c(C)c(C(=O)N(C)CCCNC)cc(-c2nc(-c3ccc(Cl)cc3)cs2)c1=O` [Compound 133], the pIC50 in assay [1] was 5.30 to 6.00; in assay [2], 4.70 to 5.30.
For `CCSc1ccccc1-n1c2c(cc(-c3nc(-c4ccc(Cl)cc4)cs3)c1=O)C(=O)CC(C)(C)C2` [Compound 134], in that order: 6.00 to 6.52 and 5.30 to 6.00.
